Laboratory results taken from patent publication US6790854B2, “Diphenylalkylamine derivatives useful as opioid receptor agonists” (Meiji Seika Kaisha, Ltd., priority 2000, dated 2004).

Target: T1, opioid δ receptor (Rattus norvegicus, UniProt P33533)
T1 construct: A membrane fraction of opioid δ receptor was prepared from the rat forebrain; from tissue; host or cells: rat forebrain membrane fraction
Assay: Binding affinity for opioid δ receptor ([3H]-Naltrindole displacement, rat forebrain membrane fraction)
Conditions: [3H]-Naltrindole 1 nM, 25° C., 90 minutes, Ki calculated from IC50 by the Cheng-Prusoff equation

T1 sequence (P33533 whole entry): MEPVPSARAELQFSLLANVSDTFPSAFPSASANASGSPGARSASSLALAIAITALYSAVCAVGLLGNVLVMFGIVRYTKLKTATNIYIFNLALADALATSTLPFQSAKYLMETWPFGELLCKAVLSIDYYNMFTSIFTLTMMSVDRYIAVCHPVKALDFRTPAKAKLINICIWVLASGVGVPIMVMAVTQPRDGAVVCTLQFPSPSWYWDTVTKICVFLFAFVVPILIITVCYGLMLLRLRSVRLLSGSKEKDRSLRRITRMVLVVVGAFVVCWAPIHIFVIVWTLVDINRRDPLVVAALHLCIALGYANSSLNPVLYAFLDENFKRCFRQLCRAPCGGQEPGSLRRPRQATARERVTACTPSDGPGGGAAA

Compound: CCN(CC)C(=O)c1ccc(C(CCN2CCC3(CC2)CNC(=O)c2cccc(C)c23)c2ccccc2OC)cc1 (stereo not shown) [Example 9, 1′-[3-(4-Diethylcarbamoylphenyl)-3-(2-methoxyphenyl)Propyl]-2,3-dihydro-5-methylspiro [isoquinoline-4(1H),4′-piperidin]-1-one]
- Ki: 1210 nM
